Results taken from patent US20240425464A1, “Substituted Monohydrazides as Potent Antifungal Agents” (University of Kentucky Research Foundation, priority 2023, published 2024).
≈ marks a conversion by molar mass, not a printed value. Read-outs that look alike come from different tables or passages of the source.

Columns and labels:
Test in all cases: MIC determination by in vitro antifungal assay
Type in all cases: cell-based
[1] = test system: Aspergillus nidulans ATCC 38163 (P)
Description: (§1) 10 mg/mL stock solutions of compounds 1a-9j were prepared in dimethyl sulfoxide (DMSO) and were stored at −20° C. in the dark. The antifungal agent amphotericin B (AmB) was purchased from VWR (Radnor PA, USA). AmB was dissolved in DMSO at a final concentration of 5 mg/mL and was stored at −20° C., protected from light. Candida albicans American Type Culture Collection (ATCC) 10231 (strain A), C. albicans ATCC 64124 (B), and C. albicans ATCC MYA-2876 (C) were obtained from Utah State University. C. albicans ATCC 90819 (D), C. albicans ATCC MYA-2310 (E), C. albicans ATCC MYA-1237 (F), C. albicans ATCC MYA-1003 (G), Candida glabrata ATCC 2001 (H), Candida krusei ATCC 6258 (I), Candida parapsilosis ATCC 22019 (J), Cryptococcus neoformans ATCC MYA-895 (M), Aspergillus terreus ATCC MYA-3633 (N), and Aspergillus flavus ATCC MYA-3631 (0) were obtained from the American Type Culture Collection (ATCC; Manassas, VA, USA). Aspergillus nidulans ATCC 38163 (P) was obtained from University of Kentucky. Clinically derived Aspergillus fumigatus NRRL 163 (Q), A. fumigatus NRRL 5109 (R), and A. fumigatus NRRL 6113 (S) were obtained from Northern Regional Research Laboratory (NRRL). Candida auris 384 (K), C. auris 390 (L), and fungal strains 381-400 (including 10 C. auris (AR Bank #381-390), 3 Candida duobushaemulonii (AR Bank #391, AR Bank #392, and AR Bank #394), 2 Candida haemulonii (AR Bank #393 and AR Bank #395), 1 Kodameae ohmeri (AR Bank #396), 1 C. krusei (AR Bank #397), 1 Candida lusitaniae (AR Bank #398), and 2 Saccharomyces cerevisiae strains (AR Bank #399 and AR Bank #400)) were part of a larger fungal library from the AR Bank maintained by the Centers for Disease Control and Prevention (CDC; Atlanta, GA, USA). Filamentous fungi and yeasts were cultivated at 35° C. in RPMI 1640 medium (with L-glutamine, without sodium bicarbonate, Sigma-Aldrich, St. Louis, MO) buffered to a pH of 7.0 with 0.165 M morpholinepropanesulfonic acid (MOPS) buffer (Sigma-Aldrich). For cytotoxicity assays, HepG2 and the mouse macrophage cell line J774A.1 were obtained from University of Kentucky. The human embryonic kidney cell line, HEK-293, was bought from the ATCC. Mammalian cells were grown in Dulbecco's Modified Eagle's Medium (DMEM) (from VWR) with 10% fetal bovine serum (FBS) (from VWR) and 1% Pen/Strep (from ATCC). Cell lines were cultured at 37° C. with 5% CO2 and passaged by trypsinization with 0.05% trypsin: 0.53 mM EDTA (from Sigma-Aldrich).
(§2) The MIC values of compounds 1a-9j against yeast cells (strains A-P and 381-400) were determined in 96-well plates as described in the CLSI documents M27-A3 and M38-A2 with minor modifications.^2 A single colony of freshly prepared yeast cells was used to inoculate 5 mL of yeast extract peptone dextrose (YPD) broth prior to incubation overnight with shaking at 200 rpm at 35° C. From the actively growing yeast culture, 100 µL were then transferred to 900 μL of RPMI 1640 medium and re-adjusted to achieve OD600 of 0.12 (˜1×10^6 CFU/mL). The cell suspension was further diluted to achieve 1:100 in RPMI 1640 medium. 100 μL of cells were added to the wells of a 96-well microtiter plates that contained 100 µL of the compound solution to obtain concentrations of 0.06-31.3 μg/mL of compounds 1a-9j or AmB prior to incubation for 48 h at 35° C.
(§3) Finally, the activity of these monohydrazides was explored against […] non-Candida strains: Cryptococcus neoformans ATCC MYA-895 (M), Aspergillus terreus ATCC MYA-3633 (N), Aspergillus flavus ATCC MYA-3631 (O), Aspergillus nidulans ATCC 38163 (P), Aspergillus fumigatus NRRL 163 (Q), A. fumigatus NRRL 5109 (R), and A. fumigatus NRRL 6113 (S) (Tables 1A and 1B). The double dilution method was used with concentrations ranging from 0.06 to 31.3 j·tg mL^−1 for monohydrazides 1a-9j, and the commercially available positive antifungal control amphotericin B (AmB).

[2] = test system: Cryptococcus neoformans ATCC MYA-895 (M); details: strain M = C. neoformans ATCC MYA-895
Description: as §1, §2, §3

[3] = test system: Aspergillus flavus ATCC MYA-3631 (O); details: strain O = A. flavus ATCC MYA-3631
Description: as §1, §2, §3

[4] = test system: Aspergillus terreus ATCC MYA-3633 (N); details: strain N = A. terreus ATCC MYA-3633
Description: as §1, §2, §3

[5] = test system: Candida glabrata ATCC 2001 (H); details: ATCC 2001 in text
Description: as §1
(§4) The MIC values of compounds 1a-9j against yeast cells (strains A-P and 381-400) were determined in 96-well plates as described in the CLSI documents M27-A3 and M38-A2 with minor modifications.^2 A single colony of freshly prepared yeast cells was used to inoculate 5 mL of yeast extract peptone dextrose (YPD) broth prior to incubation overnight with shaking at 200 rpm at 35° C. From the actively growing yeast culture, 100 µL were then transferred to 900 μL of RPMI 1640 medium and re-adjusted to achieve OD600 of 0.12 (˜1×10^6 CFU/mL). The cell suspension was further diluted to achieve 1:100 in RPMI 1640 medium. 100 μL of cells were added to the wells of a 96-well microtiter plates that contained 100 µL of the compound solution to obtain concentrations of 0.06-31.3 μg/mL of compounds 1a-9j or AmB prior to incubation for 48 h at 35° C. […]

[6] = test system: Candida parapsilosis ATCC 22019 (J)
Description: as §1, §4

[7] = test system: Candida krusei ATCC 6258 (I)
Description: as §1, §4

[8] = Aspergillus nidulans, ATCC38163, strain P = A. nidulans ATCC 38163, read-out: MIC
[9] = Cryptococcus neoformans, read-out: MIC
[10] = Aspergillus flavus, read-out: MIC
[11] = Aspergillus terreus, read-out: MIC
[12] = Nakaseomyces glabratus, ATCC 2001 / ATCC 2004, strain H = C. glabrata ATCC 2004 (footnote), read-out: MIC
[13] = Lodderomyces parapsilosis, ATCC22019, strain J = C. parapsilosis ATCC 22019, read-out: MIC
[14] = Pichia kudriavzevii, ATCC6258, strain I = C. krusei ATCC 6258, read-out: MIC
[15] = strain P = A. nidulans ATCC 38163
[16] = strain H = C. glabrata ATCC 2004 (footnote)
[17] = strain J = C. parapsilosis ATCC 22019

| SMILES | MIC [1, 8] | MIC [2, 9] | MIC [3, 10] | MIC [4, 11] | MIC [5, 12] | MIC [6, 13] | MIC [7, 14] | MIC [1, 15] | MIC [2] | MIC [3] | MIC [4] | MIC [5, 16] | MIC [6, 17] | MIC ([7]; strain I = C. krusei ATCC 6258) |
| --- | --- | --- | --- | --- | --- | --- | --- | --- | --- | --- | --- | --- | --- | --- |
| O=C(NNc1ccc(F)cc1F)c1cnccn1 [Compound 9g] | 0.49 µg/mL (≈ 1.96 µM) | 0.24 µg/mL (≈ 0.959 µM) | 7.8 µg/mL (≈ 31.2 µM) | 0.98 µg/mL (≈ 3.92 µM) | 0.98 µg/mL (≈ 3.92 µM) | 3.9 µg/mL (≈ 15.6 µM) | 0.24 µg/mL (≈ 0.959 µM) | – | – | – | – | – | – | – |
| O=C(NNc1ccc(F)cc1)c1ccc(F)cn1 [Compound 3d] | – | – | – | – | – | – | – | 0.98 μg/mL^−1 | 0.98 μg/mL^−1 | 15.6 μg/mL^−1 | 3.9 μg/mL^−1 | 15.6 μg/mL^−1 | 3.9 μg/mL^−1 | 0.49 μg/mL^−1 |
| O=C(NNc1cccc(F)c1)c1cccc(Br)n1 [Compound 6a] | – | – | – | – | – | – | – | 1.95 μg/mL^−1 | ≤0.06 μg/mL^−1 | 31.3 μg/mL^−1 | 3.9 μg/mL^−1 | >31.3 μg/mL^−1 | 1.95 μg/mL^−1 | 0.49 μg/mL^−1 |
| O=C(NNc1ccc(F)cc1F)c1cccc(F)n1 [Compound 5g] | 0.49 µg/mL (≈ 1.83 µM) | 0.49 µg/mL (≈ 1.83 µM) | 31.3 µg/mL (≈ 117 µM) | 3.9 µg/mL (≈ 14.6 µM) | 31.3 µg/mL (≈ 117 µM) | 31.3 µg/mL (≈ 117 µM) | 0.98 µg/mL (≈ 3.67 µM) | – | – | – | – | – | – | – |
| O=C(NNc1ccc(F)cc1)c1ccccn1 [Compound 2d] | 0.49 µg/mL (≈ 2.12 µM) | 0.24 µg/mL (≈ 1.04 µM) | 31.3 µg/mL (≈ 135 µM) | 1.95 µg/mL (≈ 8.43 µM) | 1.95 µg/mL (≈ 8.43 µM) | 1.95 µg/mL (≈ 8.43 µM) | 0.12 µg/mL (≈ 0.519 µM) | – | – | – | – | – | – | – |
| COc1ccc(NNC(=O)c2ccc(F)cn2)cc1 [Compound 3f] | – | – | – | – | – | – | – | 1.95 μg/mL^−1 | ≤0.06 μg/mL^−1 | >31.3 μg/mL^−1 | 31.3 μg/mL^−1 | 1.95 μg/mL^−1 | 3.9 μg/mL^−1 | 0.24 μg/mL^−1 |
| O=C(NNc1ccc(Cl)cc1)c1ncc(F)cc1F [Compound 7e] | – | – | – | – | – | – | – | 7.8 μg/mL^−1 | 1.95 μg/mL^−1 | >31.3 μg/mL^−1 | >31.3 μg/mL^−1 | 3.9 μg/mL^−1 | 15.6 μg/mL^−1 | 1.95 μg/mL^−1 |
| O=C(NNc1ccc(Cl)cc1)c1cnccn1 [Compound 9e] | – | – | – | – | – | – | – | 1.95 μg/mL^−1 | 0.98 μg/mL^−1 | >31.3 μg/mL^−1 | 7.8 μg/mL^−1 | 1.95 μg/mL^−1 | 7.8 μg/mL^−1 | 3.9 μg/mL^−1 |
| COc1ccc(NNC(=O)c2cccc(Br)n2)cc1 [Compound 6f] | 3.9 µg/mL (≈ 12.1 µM) | 1.95 µg/mL (≈ 6.05 µM) | > 31.3 µg/mL | 7.8 µg/mL (≈ 24.2 µM) | 1.95 µg/mL (≈ 6.05 µM) | 3.9 µg/mL (≈ 12.1 µM) | 0.98 µg/mL (≈ 3.04 µM) | – | – | – | – | – | – | – |
| O=C(NNc1ccc(F)cc1F)c1nc(F)ccc1F [Compound 8g] | 0.49 µg/mL (≈ 1.72 µM) | 0.49 µg/mL (≈ 1.72 µM) | > 31.3 µg/mL | 31.3 µg/mL (≈ 110 µM) | 15.6 µg/mL (≈ 54.7 µM) | 15.6 µg/mL (≈ 54.7 µM) | 0.49 µg/mL (≈ 1.72 µM) | – | – | – | – | – | – | – |
| O=C(NNc1ccc(F)cc1)c1ccc(Br)cn1 [Compound 4d] | 1.95 µg/mL (≈ 6.29 µM) | 0.98 µg/mL (≈ 3.16 µM) | 15.6 µg/mL (≈ 50.3 µM) | 7.8 µg/mL (≈ 25.2 µM) | > 31.3 µg/mL | 7.8 µg/mL (≈ 25.2 µM) | 0.98 µg/mL (≈ 3.16 µM) | – | – | – | – | – | – | – |
| COc1cccc(NNC(=O)c2ccc(F)cc2F)c1 [Compound 1c] | 3.9 µg/mL (≈ 14 µM) | 0.49 µg/mL (≈ 1.76 µM) | > 31.3 µg/mL | 3.9 µg/mL (≈ 14 µM) | 31.3 µg/mL (≈ 112 µM) | 7.8 µg/mL (≈ 28 µM) | 0.98 µg/mL (≈ 3.52 µM) | – | – | – | – | – | – | – |
| O=C(NNc1cccc(F)c1)c1nc(F)ccc1F [Compound 8a] | – | – | – | – | – | – | – | 1.95 μg/mL^−1 | ≤0.06 μg/mL^−1 | >31.3 μg/mL^−1 | 3.9 μg/mL^−1 | 15.6 μg/mL^−1 | 7.8 μg/mL^−1 | 0.49 μg/mL^−1 |
| COc1cccc(NNC(=O)c2ccc(Br)cn2)c1 [Compound 4c] | 1.95 µg/mL (≈ 6.05 µM) | 0.49 µg/mL (≈ 1.52 µM) | > 31.3 µg/mL | 3.9 µg/mL (≈ 12.1 µM) | 15.6 µg/mL (≈ 48.4 µM) | 3.9 µg/mL (≈ 12.1 µM) | 0.24 µg/mL (≈ 0.745 µM) | – | – | – | – | – | – | – |
| COc1cccc(NNC(=O)c2ccc(F)cn2)c1 [Compound 3c] | – | – | – | – | – | – | – | 1.95 μg/mL^−1 | 0.24 μg/mL^−1 | >31.3 μg/mL^−1 | 3.9 μg/mL^−1 | – | 3.9 μg/mL^−1 | 0.24 μg/mL^−1 |
